Read-outs that look alike come from different tables or passages of the source.
Legend:
[1] = biological target: T1, α-chymotrypsin (bovine pancreatic) (Bos taurus, UniProt P00766); test: biochemical; design: alpha-chymotrypsin inhibition, SAAPFpNA (100 uM) hydrolysis, absorbance at 410 nm, 25 °C, pH 7.8
T1 construct: native enzyme from bovine pancreas, commercial, used as received
Method: Bovine pancreatic α-chymotrypsin was purchased from Sigma-Aldrich (C4129) and used as received. Enzyme solutions were kept on ice during the experiments. The molecular mass of α-chymotrypsin was taken as 25 kDa. N-Succinyl-L-alanine-L-alanine-L-proline-L-phenylalanine-p-nitroanilide (SAAPFpNA) was purchased from Sigma-Aldrich (S7388), prepared as a 10 mM stock solution in DMSO, and stored at − 30 °C. A microbial chymostatin, a mixture of chymostatin A–C, was purchased from Peptide Institute (4063) and used as a positive control. DMSO for biochemical research was purchased from Nacalai and used as received. Other reagents were purchased from Nacalai and used as received. The concentration–response curves were plotted and IC50 values were calculated by GraphPad Prism 8 software using a sigmoidal concentration–response curve analysis with variable slope. Absorbance was measured with a JASCO V-660 spectrometer at 25 °C. According to the reported procedure, the assay was performed in Tris–HCl buffer (80 mM, pH 7.8) containing α-chymotrypsin (6 nM, final concentration) and CaCl2 (10 mM, final concentration). After 30 min of incubation with the test compound at 25 °C, the enzymatic reaction was initiated by adding SAAPFpNA (100 μM, final concentration) to give a final volume of 700 μL. Reaction progress was monitored by absorbance at 410 nm at 25 °C for 5 min. The final concentration of DMSO was 3% (v/v). The prepared Ugi adducts have a diamide motif and were therefore subjected to a protease inhibition assay. Protease inhibitors have received increasing attention for their therapeutic potential against respiratory virus infections including severe acute respiratory syndrome coronavirus 2 (SARS-CoV-2)[34],[35]. The inhibitory activity of the Ugi adducts was determined in the presence of 6 nM α-chymotrypsin and 100 μM succinyl-Ala-Ala-Pro-Phe-p-nitroanilide[36]. […] Thus, the proposed engineering method, although preliminary, can be used to create novel candidates for α-chymotrypsin inhibitors. Further structural optimization, such as removal of the benzyl group on the amide nitrogen, construction of a dipeptide motif, and installation of an aromatic amino acid residue at the C-terminal of dipeptides[37] will improve the inhibitory activities of the Ugi adducts and will be reported in due course. The molecular weights of the synthesized plant product-like molecules were in the range of 492.70–1011.57 g mol^−1, which corresponds to the category of beyond the rule of five (bRo5)[38], or middle-molecules. Therefore, the present chemical hybridization method could be used to construct a small library of middle-molecules mimicking natural products, which is useful for the discovery of peptidic modulators of protein–protein interactions. Ongoing biological evaluations of the present molecules will unveil their specific pharmaceutical potential.

[2] = biological target: T1, α-chymotrypsin (bovine pancreatic); test: chromogenic protease inhibition assay, absorbance at […] nm; assay type: biochemical; details: 100 μM SAAPFpNA, 6 nM enzyme, 80 mM Tris-HCl pH 7.8, 10 mM CaCl2, 25 °C, 30 min preincubation, 3% DMSO
[3] = biological target: T1, α-chymotrypsin (bovine pancreatic); test: as above; assay type: biochemical

## CC(=O)N(Cc1ccccc1)C(C(=O)NC1CCCCC1)c1ccccc1 (stereo not shown) [1h, 2-(N-Benzylacetamido)-N-cyclohexyl-2-phenylacetamide]
[1]
  inhibition at 10 µM: 2.4 ± 1.6%

## O=C(NC1CCCCC1)C(c1ccccc1)N(Cc1ccccc1)C(=O)C1CCCCC1 (stereo not shown) [1i, N-Benzyl-N-(2-(cyclohexylamino)-2-oxo-1-phenylethyl)cyclohexanecarboxamide]
[1]
  inhibition at 10 µM: 3.8 ± 0.4%

## Cc1ccc(S(=O)(=O)CNC(=O)C(c2ccccc2)N(Cc2ccccc2)C(=O)CCl)cc1 (stereo not shown) [1a, N-Benzyl-2-chloro-N-(2-oxo-1-phenyl-2-((tosylmethyl)amino)ethyl)acetamide]
[1]
  inhibition at 10 µM: 4.7 ± 1.1%

## CC(=O)N(Cc1ccccc1)C(CC(C)CCC=C(C)C)C(=O)NCS(=O)(=O)c1ccc(C)cc1 (racemic) [compound 2, Ugi adduct 2]
[2]
  % Inhibition (10 μM)^a: 9.2 ± 1.6%

## CC1=C(C(C(=O)NC2CCCCC2)N(Cc2ccccc2)C(=O)CCl)C(C)(C)CCC1 (stereo not shown) [1d, N-Benzyl-2-chloro-N-(2-(cyclohexylamino)-2-oxo-1-(2,6,6-trimethylcyclohex-1-en-1-yl)ethyl)acetamide]
[1]
  inhibition at 10 µM: 8.9 ± 2.1%

## CC(=O)CC[C@@H]1[C@H]2CC(=C(C)C)C(=O)C[C@@]12C [Curcumenone (6)]
[1]; read-out: % Inhibition (10 μM)
  inhibition at 10 µM: 7.8 ± 1.2%

## CCCCCC[C@@H](O)C/C=C\CCCCCCCC(=O)N(Cc1ccccc1)C(CC(C)CCC=C(C)C)C(=O)NC1CCCCC1 (stereo partly shown) [8a, Ugi adduct 8a]
[3]
  IC50: 7.3 ± 0.6 µM

## Nc1ccc2ccc3cccc4ccc1c2c34 [1-Aminopyrene]
[1]; read-out: % Inhibition (10 μM)
  inhibition at 10 µM: 5.6 ± 1%

## O=C(CCl)N(Cc1ccccc1)C1(C(=O)NC2CCCCC2)CCCC1 [1e, 1-(N-Benzyl-2-chloroacetamido)-N-cyclohexylcyclopentane-1-carboxamide]
[1]
  inhibition at 10 µM: 0.2 ± 0.8%

## CC(=O)N(Cc1ccccc1)C(C)(CC[C@@H]1[C@H]2CC(=C(C)C)C(=O)C[C@@]12C)C(=O)NC1CCCCC1 (mixture of isomers) [compound 5, Ugi adduct 5]
[2]
  % Inhibition (10 μM)^a: 4.2 ± 1.7%

## CC(C)=C1C[C@@H]2[C@@H](CCC(C)(C(=O)NC3CCCCC3)N(Cc3ccccc3)C(=O)CCl)[C@]2(C)CC1=O (mixture of isomers) [compound 4, Ugi adduct 4]
[2]
  % Inhibition (10 μM)^a: 3.1 ± 0.9%

## Cc1ccc(S(=O)(=O)CNC(=O)C2(N(Cc3ccccc3)C(=O)CCl)CCCC2)cc1 [1f, 1-(N-Benzyl-2-chloroacetamido)-N-(tosylmethyl)cyclopentane-1-carboxamide]
[1]
  inhibition at 10 µM: 7.1 ± 1%

## CC(C)=C1C[C@@H]2[C@@H](CCC(C)(C(=O)NC3CCCCC3)N(C(=O)CCl)c3ccc4ccc5cccc6ccc3c4c56)[C@]2(C)CC1=O (stereo partly shown) [compound 7, Ugi adduct 7]
[3]
  IC50: 3.1 ± 0.1 µM

## CCCCCC[C@@H](O)C/C=C\CCCCCCCC(=O)O[C@@H](C/C=C\CCCCCCCC(=O)N(Cc1ccccc1)C(CC(C)CCC=C(C)C)C(=O)NC1CCCCC1)CCCCCC (stereo partly shown) [8b, Ugi adduct 8b]
[3]
  IC50: 13.4 ± 1.3 µM

## CCCCCC[C@@H](O)C/C=C\CCCCCCCC(=O)O [(R)-Ricinoleic acid]
[1]; read-out: % Inhibition (10 μM)
  inhibition at 10 µM: 3 ± 0.9%

## CCCCCC[C@@H](O)C/C=C\CCCCCCCC(=O)N(Cc1ccccc1)C(C(=O)NC1CCCCC1)c1ccccc1 (stereo partly shown) [compound 9, Ugi adduct 9]
[3]
  IC50: 7.9 ± 0.5 µM

## [C-]#[N+]CS(=O)(=O)c1ccc(C)cc1 [TosMIC]
[1]; read-out: % Inhibition (10 μM)
  inhibition at 10 µM: 0.5 ± 0.5%

## CCCCCC[C@@H](O)C/C=C\CCCCCCCC(=O)N(Cc1ccccc1)C(C)(CC[C@@H]1[C@H]2CC(=C(C)C)C(=O)C[C@@]12C)C(=O)NC1CCCCC1 (mixture of isomers) [compound 10, Ugi adduct 10]
[3]
  IC50: 7.7 ± 0.6 µM

## O=C(NC1CCCCC1)C(c1ccccc1)N(Cc1ccccc1)C(=O)CCl (stereo not shown) [1b, N-Benzyl-2-chloro-N-(2-(cyclohexylamino)-2-oxo-1-phenylethyl)acetamide]
[1]
  inhibition at 10 µM: 9.2 ± 2%

## CC(C)C(C(=O)NC1CCCCC1)N(Cc1ccccc1)C(=O)CCl (stereo not shown) [1c, 2-(N-Benzyl-2-chloroacetamido)-N-cyclohexyl-3-methylbutanamide]
[1]
  inhibition at 10 µM: 4.4 ± 2%

## CC(C)=CCCC(C)CC(C(=O)NC1CCCCC1)N(Cc1ccccc1)C(=O)CC[C@@H](C)[C@H]1CC[C@H]2[C@@H]3[C@@H](O)C[C@@H]4C[C@H](O)CC[C@]4(C)[C@H]3CC[C@]12C (stereo partly drawn) [1j, 2-((R)-N-Benzyl-4-((3R,5S,7S,8R,9S,10S,13R,14S,17R)-3,7-dihydroxy-10,13-dimethylhexadecahydro-1H-cyclopenta[a]phenanthren-17-yl)pentanamido)-N-cyclohexyl-4,8-dimethylnon-7-enamide]
[1]
  IC50: 9.2 ± 0.8 µM
  inhibition at 10 µM: 62.3 ± 0.2%

## NCc1ccccc1 [Benzylamine]
[1]; read-out: % Inhibition (10 μM)
  inhibition at 10 µM: 7 ± 1.4%

## O=C(NC1CCCCC1)C(c1ccccc1)N(C(=O)CCl)c1ccc2ccc3cccc4ccc1c2c34 (stereo not shown) [1g, 2-Chloro-N-(2-(cyclohexylamino)-2-oxo-1-phenylethyl)-N-(pyren-1-yl)acetamide]
[1]
  IC50: 4.5 ± 0.3 µM
  inhibition at 10 µM: 83.7 ± 1.8%
